Data reported in patent US10724099B2, “Multiplex methods to assay mixed cell populations simultaneously” (The Broad Institute, Inc., priority 2012, dated 2020).

Columns and labels:
102 barcoded cell lines = assay: PRISM, 102 barcoded cell lines in pools; assay type: cell-based; conditions: 102 cell lines
Description: PRISM was used to identify novel anticancer compounds, using a set of 102 barcoded cell lines including 90 non-small cell lung adenocarcinoma lines (and 2 duplicate lines with different barcode labels) and 10 remaining cell lines representing other tissues of origins.
Using the AUC for each cell line's response to BRD-7880, a PRISM “activity profile” was created to query whether the sensitivity pattern of BRD-7880 across the cell line panel was related to any of the tool compounds assayed in parallel. […] Thus it was hypothesized that BRD-7880 was functioning as an inhibitor of aurora kinases.

HCT-116 cells = assay: Western blot phosphoserine 10-histone H3; assay type: cell-based; conditions: 10 μM
Protocol: Finally, HCT-116 cells were treated with 10 μM of DMSO, barasertib, GSK1070916, MLN8054, BRD-7880, or tozasertib. Cells lysates were probed on Western blot using antibodies (diluted 1:1000) to histone H3 (Abcam cat. no. 24834), phosphoserine 10-histone H3 (Cell Signaling Technology cat no. 3377SS), aurora kinase B (Millipore cat. no. 04-1036), or beta-actin (Santa Cruz Biotechnology cat. no. sc-47778) and detected using a LI-COR Odyssey analyzer.

[1] = target: T1, ABL1(E255K)---phosphorylated (Homo sapiens, UniProt P00519, E255K); assay: DiscoveRx KinomeScan binding; conditions: Entrez ABL1
T1 construct: purchased DiscoveRx (KINOMEscan scanEDGE panel)

[2] = target: T2, ABL1(T315I)---phosphorylated (Homo sapiens, UniProt P00519, T315I); assay: DiscoveRx KinomeScan binding; conditions: Entrez ABL1
T2 construct: purchased DiscoveRx (KINOMEscan scanEDGE panel)

ABL1---phosphorylated = target: T3, ABL1---phosphorylated (Homo sapiens, UniProt P00519); assay: DiscoveRx KinomeScan binding; conditions: Entrez ABL1
T3 construct: purchased DiscoveRx (KINOMEscan scanEDGE panel)

AURKB = target: T4, AURKB (Homo sapiens, UniProt Q96GD4); assay: DiscoveRx KinomeScan binding
T4 construct: purchased DiscoveRx (KINOMEscan scanEDGE panel)
T4 sequence (Q96GD4 whole entry): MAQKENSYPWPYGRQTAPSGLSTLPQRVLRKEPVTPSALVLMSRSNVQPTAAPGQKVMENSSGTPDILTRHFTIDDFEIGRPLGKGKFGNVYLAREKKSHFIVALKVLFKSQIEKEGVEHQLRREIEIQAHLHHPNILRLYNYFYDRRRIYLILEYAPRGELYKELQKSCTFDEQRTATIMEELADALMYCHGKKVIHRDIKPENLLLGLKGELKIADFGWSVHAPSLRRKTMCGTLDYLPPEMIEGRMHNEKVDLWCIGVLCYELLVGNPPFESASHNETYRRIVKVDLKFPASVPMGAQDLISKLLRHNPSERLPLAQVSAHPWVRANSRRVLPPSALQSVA

CDK2 = target: T5, CDK2 (Homo sapiens, UniProt P24941); assay: DiscoveRx KinomeScan binding
T5 construct: purchased DiscoveRx (KINOMEscan scanEDGE panel)

CDK9 = target: T6, CDK9 (Homo sapiens, UniProt P50750); assay: DiscoveRx KinomeScan binding
T6 construct: purchased DiscoveRx scanEDGE panel
T6 sequence (P50750 whole entry): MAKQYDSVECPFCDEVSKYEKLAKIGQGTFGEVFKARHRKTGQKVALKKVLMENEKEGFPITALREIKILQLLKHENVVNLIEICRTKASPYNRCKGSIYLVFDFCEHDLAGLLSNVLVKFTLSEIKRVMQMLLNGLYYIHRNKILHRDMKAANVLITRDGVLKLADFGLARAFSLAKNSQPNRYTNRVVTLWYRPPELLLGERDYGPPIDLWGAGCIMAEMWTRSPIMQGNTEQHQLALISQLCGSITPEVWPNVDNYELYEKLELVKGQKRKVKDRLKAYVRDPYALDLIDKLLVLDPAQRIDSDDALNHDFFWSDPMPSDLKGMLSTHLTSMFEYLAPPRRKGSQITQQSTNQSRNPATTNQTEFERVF

FGFR3 = target: T7, FGFR3 (Homo sapiens, UniProt P22607); assay: DiscoveRx KinomeScan binding
T7 construct: purchased DiscoveRx scanEDGE panel

FLT3 = target: T8, FLT3 (Homo sapiens, UniProt P36888); assay: DiscoveRx KinomeScan binding
T8 construct: purchased DiscoveRx scanEDGE panel

INSR = target: T9, INSR (Homo sapiens, UniProt P06213); assay: DiscoveRx KinomeScan binding
T9 construct: purchased DiscoveRx scanEDGE panel
T9 sequence (P06213 28-1382): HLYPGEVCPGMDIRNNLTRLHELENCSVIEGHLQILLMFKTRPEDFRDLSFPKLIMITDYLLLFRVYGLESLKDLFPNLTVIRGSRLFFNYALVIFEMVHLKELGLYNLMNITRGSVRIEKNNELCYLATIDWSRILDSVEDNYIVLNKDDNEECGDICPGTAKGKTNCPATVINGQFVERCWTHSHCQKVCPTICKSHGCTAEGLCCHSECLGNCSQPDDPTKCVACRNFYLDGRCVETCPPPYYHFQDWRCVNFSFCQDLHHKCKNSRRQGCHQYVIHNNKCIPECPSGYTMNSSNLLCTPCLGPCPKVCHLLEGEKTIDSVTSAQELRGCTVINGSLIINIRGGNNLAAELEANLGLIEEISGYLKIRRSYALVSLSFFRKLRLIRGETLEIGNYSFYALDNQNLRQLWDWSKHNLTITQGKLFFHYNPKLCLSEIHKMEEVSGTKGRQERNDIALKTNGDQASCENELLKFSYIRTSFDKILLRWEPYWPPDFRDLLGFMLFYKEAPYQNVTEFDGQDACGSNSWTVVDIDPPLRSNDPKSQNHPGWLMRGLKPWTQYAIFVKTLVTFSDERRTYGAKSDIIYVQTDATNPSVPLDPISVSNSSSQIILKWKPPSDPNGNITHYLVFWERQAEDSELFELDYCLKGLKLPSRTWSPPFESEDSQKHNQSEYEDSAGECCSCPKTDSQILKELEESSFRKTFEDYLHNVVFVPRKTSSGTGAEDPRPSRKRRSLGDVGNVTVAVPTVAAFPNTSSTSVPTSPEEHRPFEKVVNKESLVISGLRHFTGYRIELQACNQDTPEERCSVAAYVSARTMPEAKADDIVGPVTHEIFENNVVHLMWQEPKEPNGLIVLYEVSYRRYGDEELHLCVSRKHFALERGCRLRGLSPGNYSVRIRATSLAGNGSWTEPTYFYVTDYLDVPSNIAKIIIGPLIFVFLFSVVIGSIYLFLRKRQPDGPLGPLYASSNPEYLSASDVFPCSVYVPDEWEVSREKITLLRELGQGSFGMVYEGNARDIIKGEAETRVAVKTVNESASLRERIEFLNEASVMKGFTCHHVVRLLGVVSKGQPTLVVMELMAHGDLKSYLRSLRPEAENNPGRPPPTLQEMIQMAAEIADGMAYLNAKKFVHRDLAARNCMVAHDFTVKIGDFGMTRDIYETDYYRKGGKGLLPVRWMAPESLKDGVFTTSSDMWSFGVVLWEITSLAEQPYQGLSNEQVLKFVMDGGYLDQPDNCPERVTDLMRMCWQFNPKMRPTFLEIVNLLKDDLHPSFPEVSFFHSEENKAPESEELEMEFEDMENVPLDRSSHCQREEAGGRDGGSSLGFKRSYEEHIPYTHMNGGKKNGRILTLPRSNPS

[3] = target: T10, JAK3(JH1domain---catalytic) (Homo sapiens, UniProt P52333); assay: DiscoveRx KinomeScan binding
T10 construct: JAK3(JH1domain---catalytic); purchased DiscoveRx scanEDGE panel

MARK3 = target: T11, MARK3 (Homo sapiens, UniProt P27448); assay: DiscoveRx KinomeScan binding
T11 construct: purchased DiscoveRx scanEDGE panel (KinomeScan)

MEK1 = target: T12, MEK1 (Homo sapiens, UniProt Q02750); assay: DiscoveRx KinomeScan binding; conditions: Entrez MAP2K1
T12 construct: purchased DiscoveRx scanEDGE panel (KinomeScan)
T12 sequence (Q02750 whole entry): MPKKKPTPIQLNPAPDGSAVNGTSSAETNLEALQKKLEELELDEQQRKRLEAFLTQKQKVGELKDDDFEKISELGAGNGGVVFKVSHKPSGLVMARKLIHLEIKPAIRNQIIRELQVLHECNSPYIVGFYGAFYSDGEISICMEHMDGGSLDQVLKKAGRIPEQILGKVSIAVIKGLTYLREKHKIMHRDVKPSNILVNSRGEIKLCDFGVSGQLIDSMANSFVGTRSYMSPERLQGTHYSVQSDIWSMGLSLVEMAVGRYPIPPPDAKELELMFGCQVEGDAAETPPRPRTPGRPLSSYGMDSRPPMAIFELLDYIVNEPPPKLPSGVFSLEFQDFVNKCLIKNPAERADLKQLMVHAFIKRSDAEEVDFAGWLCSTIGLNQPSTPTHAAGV

MET = target: T13, MET (Homo sapiens, UniProt P08581); assay: DiscoveRx KinomeScan binding
T13 construct: purchased DiscoveRx scanEDGE panel (KinomeScan)

MKNK1 = target: T14, MKNK1 (Homo sapiens, UniProt Q9BUB5); assay: DiscoveRx KinomeScan binding
T14 construct: purchased DiscoveRx scanEDGE panel (KinomeScan)

MKNK2 = target: T15, MKNK2 (Homo sapiens, UniProt Q9HBH9); assay: DiscoveRx KinomeScan binding
T15 construct: purchased DiscoveRx scanEDGE panel (KinomeScan)

p38---beta = target: T16, p38---beta (Homo sapiens, UniProt Q15759); assay: DiscoveRx KinomeScan binding; conditions: Entrez MAPK11
T16 construct: purchased DiscoveRx scanEDGE panel (KinomeScan)
T16 sequence (Q15759 whole entry): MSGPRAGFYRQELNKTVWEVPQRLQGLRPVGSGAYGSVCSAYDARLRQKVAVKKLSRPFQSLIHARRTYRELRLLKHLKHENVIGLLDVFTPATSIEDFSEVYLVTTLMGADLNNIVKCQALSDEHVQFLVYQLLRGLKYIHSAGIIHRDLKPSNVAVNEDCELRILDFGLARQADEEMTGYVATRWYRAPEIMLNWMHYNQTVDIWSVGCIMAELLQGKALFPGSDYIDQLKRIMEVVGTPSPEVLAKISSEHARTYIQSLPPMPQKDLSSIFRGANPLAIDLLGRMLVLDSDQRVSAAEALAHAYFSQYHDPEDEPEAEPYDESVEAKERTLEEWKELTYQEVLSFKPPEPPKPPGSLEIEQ

PDGFRA = target: T17, PDGFRA (Homo sapiens, UniProt P16234); assay: DiscoveRx KinomeScan binding
T17 construct: purchased DiscoveRx scanEDGE panel (KinomeScan)

PDGFRB = target: T18, PDGFRB (Homo sapiens, UniProt P09619); assay: DiscoveRx KinomeScan binding
T18 construct: purchased DiscoveRx scanEDGE panel (KinomeScan)

PDPK1 = target: T19, PDPK1 (Homo sapiens, UniProt O15530); assay: DiscoveRx KinomeScan binding
T19 construct: purchased DiscoveRx scanEDGE panel (KinomeScan)

PIK3CA = target: T20, PIK3CA (Homo sapiens, UniProt P42336); assay: DiscoveRx KinomeScan binding
T20 construct: purchased DiscoveRx scanEDGE panel

PIM1 = target: T21, PIM1 (Homo sapiens, UniProt P11309); assay: DiscoveRx KinomeScan binding
T21 construct: purchased DiscoveRx scanEDGE panel

PLK1 = target: T22, PLK1 (Homo sapiens, UniProt P53350); assay: DiscoveRx KinomeScan binding
T22 construct: purchased DiscoveRx scanEDGE panel

RAF1 = target: T23, RAF1 (Homo sapiens, UniProt P04049); assay: DiscoveRx KinomeScan binding
T23 construct: purchased DiscoveRx scanEDGE panel

RET = target: T24, RET (Homo sapiens, UniProt P07949); assay: DiscoveRx KinomeScan binding
T24 construct: purchased DiscoveRx scanEDGE panel

ROCK2 = target: T25, ROCK2 (Homo sapiens, UniProt O75116); assay: DiscoveRx KinomeScan binding
T25 construct: purchased DiscoveRx scanEDGE panel

[4] = target: T26, RSK2(Kin.Dom.1---N---terminal) (Homo sapiens, UniProt P51812); assay: DiscoveRx KinomeScan binding; conditions: Entrez RPS6KA3
T26 construct: RSK2(Kin.Dom.1---N---terminal); purchased DiscoveRx scanEDGE panel

SNARK = target: T27, SNARK (Homo sapiens, UniProt Q9H093); assay: DiscoveRx KinomeScan binding; conditions: Entrez NUAK2
T27 construct: purchased DiscoveRx scanEDGE panel

SRC = target: T28, SRC (Homo sapiens, UniProt P12931); assay: DiscoveRx KinomeScan binding
T28 construct: purchased DiscoveRx scanEDGE panel
T28 sequence (P12931 whole entry): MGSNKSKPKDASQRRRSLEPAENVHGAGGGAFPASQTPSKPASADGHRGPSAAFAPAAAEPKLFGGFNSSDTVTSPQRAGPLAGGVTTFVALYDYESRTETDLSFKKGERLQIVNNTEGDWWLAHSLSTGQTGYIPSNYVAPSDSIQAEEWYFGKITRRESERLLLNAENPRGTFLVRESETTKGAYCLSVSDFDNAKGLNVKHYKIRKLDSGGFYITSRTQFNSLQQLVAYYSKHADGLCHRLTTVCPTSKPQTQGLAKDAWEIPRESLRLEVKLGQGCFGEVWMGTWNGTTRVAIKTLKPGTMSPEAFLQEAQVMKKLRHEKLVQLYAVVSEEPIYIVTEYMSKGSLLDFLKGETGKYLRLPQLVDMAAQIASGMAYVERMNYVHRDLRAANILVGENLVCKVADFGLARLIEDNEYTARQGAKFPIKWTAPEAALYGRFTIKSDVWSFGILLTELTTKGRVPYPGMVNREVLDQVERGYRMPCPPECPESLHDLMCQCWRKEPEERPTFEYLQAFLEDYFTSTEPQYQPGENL

[5] = target: T29, TYK2(JH1domain---catalytic) (Homo sapiens, UniProt P29597); assay: DiscoveRx KinomeScan binding
T29 construct: TYK2(JH1domain---catalytic); purchased DiscoveRx scanEDGE panel

ULK2 = target: T30, ULK2 (Homo sapiens, UniProt Q8IYT8); assay: DiscoveRx KinomeScan binding
T30 construct: purchased DiscoveRx scanEDGE panel
T30 sequence (Q8IYT8 whole entry): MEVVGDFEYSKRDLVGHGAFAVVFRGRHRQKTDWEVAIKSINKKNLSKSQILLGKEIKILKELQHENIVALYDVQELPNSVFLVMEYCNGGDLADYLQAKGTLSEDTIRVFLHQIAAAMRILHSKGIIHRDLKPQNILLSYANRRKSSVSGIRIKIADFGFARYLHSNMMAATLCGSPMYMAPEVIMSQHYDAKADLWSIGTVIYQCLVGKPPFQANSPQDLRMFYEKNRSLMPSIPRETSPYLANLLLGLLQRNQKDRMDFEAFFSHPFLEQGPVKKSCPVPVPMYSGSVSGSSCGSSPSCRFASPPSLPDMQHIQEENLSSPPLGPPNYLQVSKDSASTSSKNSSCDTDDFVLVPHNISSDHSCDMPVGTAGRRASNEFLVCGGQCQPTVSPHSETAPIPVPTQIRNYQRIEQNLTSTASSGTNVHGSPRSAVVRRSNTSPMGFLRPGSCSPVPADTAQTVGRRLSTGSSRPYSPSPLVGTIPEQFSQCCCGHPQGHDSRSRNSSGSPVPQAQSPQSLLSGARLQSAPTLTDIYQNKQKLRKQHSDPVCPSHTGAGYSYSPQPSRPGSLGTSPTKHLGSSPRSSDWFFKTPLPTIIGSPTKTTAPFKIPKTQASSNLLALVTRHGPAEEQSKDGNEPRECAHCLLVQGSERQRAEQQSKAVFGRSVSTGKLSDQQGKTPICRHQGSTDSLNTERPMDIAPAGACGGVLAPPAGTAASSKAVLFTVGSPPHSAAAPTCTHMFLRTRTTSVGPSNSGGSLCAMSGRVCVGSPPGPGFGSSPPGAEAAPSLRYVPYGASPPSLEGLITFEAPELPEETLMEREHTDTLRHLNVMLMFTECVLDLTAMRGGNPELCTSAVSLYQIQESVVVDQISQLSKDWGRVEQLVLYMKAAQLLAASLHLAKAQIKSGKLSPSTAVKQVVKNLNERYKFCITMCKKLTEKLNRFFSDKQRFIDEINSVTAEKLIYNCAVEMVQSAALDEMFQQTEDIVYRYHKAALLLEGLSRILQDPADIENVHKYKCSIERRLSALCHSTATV

ZAP70 = target: T31, ZAP70 (Homo sapiens, UniProt P43403); assay: DiscoveRx KinomeScan binding
T31 construct: purchased DiscoveRx (KinomeScan scanEDGE panel service)
T31 sequence (P43403 whole entry): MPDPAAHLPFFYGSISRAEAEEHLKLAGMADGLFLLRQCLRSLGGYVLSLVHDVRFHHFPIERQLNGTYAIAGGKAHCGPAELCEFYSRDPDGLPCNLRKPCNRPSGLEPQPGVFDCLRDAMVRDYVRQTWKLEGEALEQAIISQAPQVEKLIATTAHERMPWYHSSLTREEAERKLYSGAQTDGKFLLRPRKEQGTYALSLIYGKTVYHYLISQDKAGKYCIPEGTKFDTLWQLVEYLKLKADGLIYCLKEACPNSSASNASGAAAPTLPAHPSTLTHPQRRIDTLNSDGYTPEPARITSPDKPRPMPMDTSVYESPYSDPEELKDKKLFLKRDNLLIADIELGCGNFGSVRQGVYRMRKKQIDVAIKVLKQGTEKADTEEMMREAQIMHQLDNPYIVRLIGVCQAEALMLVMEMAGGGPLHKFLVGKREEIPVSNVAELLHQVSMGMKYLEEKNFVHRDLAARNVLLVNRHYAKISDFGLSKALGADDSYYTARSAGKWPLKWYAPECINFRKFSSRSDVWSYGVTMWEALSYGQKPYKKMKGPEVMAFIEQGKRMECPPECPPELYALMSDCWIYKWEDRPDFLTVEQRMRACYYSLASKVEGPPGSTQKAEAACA

COc1ccc(NC(=O)Nc2ccc3c(c2)C(=O)N([C@@H](C)CO)C[C@H](C)[C@H](CN(C)Cc2ccc4c(c2)OCO4)O3)cc1 [BRD-7880]
cell lines with AUC<0.5 (selectivity) (102 barcoded cell lines; 8 doses 0.25-32 μM): 12 of 102
EC50 (102 barcoded cell lines): ~1000 nM
phosphorylation of serine 10 on histone H3 (HCT-116 cells): decrease phosphorylation of serine 10 on histone H3
Percent Control [1]: 80%
Percent Control [2]: 44%
Percent Control (ABL1---phosphorylated): 88%
binding to aurora kinase B (AURKB): 0.5 % of control
Percent Control (AURKB; AURKB): 0.5%
Percent Control (CDK2): 100%
Percent Control (CDK9): 90%
Percent Control (FGFR3): 56%
Percent Control (FLT3): 65%
Percent Control (INSR): 36%
Percent Control [3]: 66%
Percent Control (MARK3): 100%
Percent Control (MEK1): 71%
Percent Control (MET): 100%
Percent Control (MKNK1): 87%
Percent Control (MKNK2): 77%
Percent Control (p38---beta): 87%
Percent Control (PDGFRA): 90%
Percent Control (PDGFRB): 100%
Percent Control (PDPK1): 48%
Percent Control (PIK3CA): 74%
Percent Control (PIM1): 87%
Percent Control (PLK1): 39%
Percent Control (RAF1): 100%
Percent Control (RET): 100%
Percent Control (ROCK2): 100%
Percent Control [4]: 80%
Percent Control (SNARK): 72%
Percent Control (SRC): 81%
Percent Control [5]: 87%
Percent Control (ULK2): 100%
Percent Control (ZAP70): 93%
